Values joined by “and” are separate entries in the source; they are usually repeats but may differ in a detail not shown here. Equal entries are not always repeated. “Also recorded” adds a separate entry of the source. Where two headings read alike, the source gives them in different places.
Experiments:
PDGFR [1] = conditions: cited from earlier work
[2] = system: collagen-induced arthritis (CIA) in DBA/1 mice; conditions: for severity of CIA (scores, paw measurements), direct comparison study: CGP53716 daily i.p. from 1 day prior to induction
[3] = mice, cited from earlier work; for trough plasma level: 15 hours after dosing
[4] = system: B cells from naïve DBA/1 mice
[5] = system: splenocytes expressing CII-specific TCR
[6] = system: established collagen-induced arthritis (CIA) in DBA/1 mice; assay: Treatment of established collagen-induced arthritis (CIA); type: in vivo, mouse
synovial fluid monocytes = assay: M-CSF-induced differentiation of RA synovial fluid monocytes to macrophages (morphology); type: cell-based, human; conditions: 5 μM imatinib with M-CSF, 72 hours
Text: H. Macrophage isolation and stimulation. […]. […]

C1.MC/57.1 mast cells = assay: SCF-stimulated mast cell cytokine production; conditions: 100 ng/mL SCF, 48 hrs, imatinib 1 μM and 5 μM
[7] = system: autoreactive B cell responses in mice with CIA; assay: Synovial array profiling of serum autoantibodies in CIA mice; type: in vivo, mouse; conditions: 100 mg/kg imatinib, day 49 sera
Method: M. Synovial array analysis. As described (Robinson, W. H., et al., Nat Med 8:295-301, (2002); Hueber, W., et al., Arthritis Rheum 52:2645-2655, (2005)), 500+ peptides and proteins representing autoantigens were printed on SuperEpoxy slides (TeleChem), arrays were incubated with 1:150 dilutions of mouse sera, followed by Cy3-labeled anti-mouse IgG/M antibody (Jackson Immunoresearch), and scanned using a GenePix 4000B scanner. Median feature intensities for each antigen were calculated from the 4-8 duplicate features representing each antigen.
. A robotic microarrayer was used to produce synovial arrays containing a spectrum of proteins and peptides representing candidate autoantigens in RA and CIA (Robinson, W. H., et al., Nat Med 8:295-301, (2002); Hueber, W., et al., Arthritis Rheum 52:2645-2655, (2005)). Arrays were incubated with 1:150 dilutions of sera, autoantibody binding detected with Cy3-labeled anti-mouse IgG/M, and arrays scanned and median fluorescence for each antigen determined. […]. Cluster and TreeView software was applied to order and display the array reactivity as a heatmap. […]

c-Kit [8] = target: T1, c-Kit (Mus musculus, UniProt P05532); assay: SCF-induced mast cell signaling, immunoblot and RPP lysate array; type: cell-based; conditions: mast cells
T1 construct: endogenous in cells; host or cells: C1.MC/57.1 mouse mast cell line

EAE in C57B/6 mice = assay: Experimental autoimmune encephalomyelitis (EAE); type: in vivo, mouse; conditions: 100 mg/kg twice daily vs PBS-vehicle
anti-CII T cells = conditions: mouse, 24 h
EGFR = EGFR (Homo sapiens, UniProt P00533); conditions: Table 7; cited from earlier work
c-Kit [9] = target: T2, c-Kit (Homo sapiens, UniProt P10721); assay: In vitro c-Kit phosphorylation assay (HTScan c-Kit Kinase Assay); type: biochemical; design: purchased Cell Signaling; conditions: 30 minutes, time-resolved fluorescence, FIG. 11A
c-Kit [10] = target: T2, c-Kit; conditions: Table 5; read-out: Kit Inhibitory Profile (IC50); cited from earlier work
FGFR = conditions: literature, cited from earlier work
[11] = I.P. 100 mg/kg, cited from earlier work
Abl = Abl (Homo sapiens, UniProt P00519); conditions: literature; cited from earlier work
PDGFR [12] = system: PDGFR
[13] = system: EGFR, FGFR, insulin receptors, Src, Lyn, PKA and PKC; conditions: clinically relevant concentrations; cited from earlier work
[14] = rats, oral 50 mg/kg; cited from earlier work
[15] = Table 7, read-out: PDGFR Inhibitory profile (with IC50s when available)
[16] = 0-5 μM imatinib, SCF 10 minutes, immunoblot
[17] = CII-specific (anti-CII) TCR transgenic, 1 μM
[18] = CII-specific (anti-CII) TCR transgenic, 5 μM
[19] = CII-specific (anti-CII) TCR transgenic, 10 μM
[20] = CII-specific TCR transgenic, 1 μM
[21] = CII-specific TCR transgenic, 5 μM
[22] = CII-specific TCR transgenic, 10 μM
[23] = Table 5, read-out: PDGFR Inhibitory Profile (IC50)
[24] = read-out: IC50 for PDGFbb-induced FLS proliferation (PDGFR), FLS from human RA patient, H3-thymidine incorporation, FIG. 11B

T1 sequence (P05532 25-979): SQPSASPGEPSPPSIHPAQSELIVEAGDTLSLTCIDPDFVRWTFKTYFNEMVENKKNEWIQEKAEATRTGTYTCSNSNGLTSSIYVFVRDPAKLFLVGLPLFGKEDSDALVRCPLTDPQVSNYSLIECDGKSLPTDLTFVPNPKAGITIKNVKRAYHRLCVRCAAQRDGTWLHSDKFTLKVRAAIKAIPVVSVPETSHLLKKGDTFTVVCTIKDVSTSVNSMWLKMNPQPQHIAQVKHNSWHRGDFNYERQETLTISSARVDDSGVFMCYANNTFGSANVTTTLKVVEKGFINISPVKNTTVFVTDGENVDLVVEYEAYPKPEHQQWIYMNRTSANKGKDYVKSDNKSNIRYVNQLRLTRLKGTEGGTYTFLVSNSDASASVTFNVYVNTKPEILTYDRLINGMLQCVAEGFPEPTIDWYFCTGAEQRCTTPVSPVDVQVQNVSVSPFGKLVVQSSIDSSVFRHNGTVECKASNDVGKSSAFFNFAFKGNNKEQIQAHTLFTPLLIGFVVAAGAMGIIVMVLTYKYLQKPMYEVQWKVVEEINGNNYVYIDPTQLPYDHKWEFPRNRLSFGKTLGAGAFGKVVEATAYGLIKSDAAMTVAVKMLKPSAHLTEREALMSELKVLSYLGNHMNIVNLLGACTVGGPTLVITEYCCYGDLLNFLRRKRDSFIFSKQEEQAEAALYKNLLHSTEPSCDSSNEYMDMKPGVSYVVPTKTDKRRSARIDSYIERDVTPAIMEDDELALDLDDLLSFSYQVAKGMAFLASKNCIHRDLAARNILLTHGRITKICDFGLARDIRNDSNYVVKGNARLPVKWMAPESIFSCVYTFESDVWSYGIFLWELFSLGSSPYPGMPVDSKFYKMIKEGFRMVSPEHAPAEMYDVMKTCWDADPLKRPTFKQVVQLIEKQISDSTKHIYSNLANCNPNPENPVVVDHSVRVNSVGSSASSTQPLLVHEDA
Chain of Abl (P00519 whole entry, species assumed): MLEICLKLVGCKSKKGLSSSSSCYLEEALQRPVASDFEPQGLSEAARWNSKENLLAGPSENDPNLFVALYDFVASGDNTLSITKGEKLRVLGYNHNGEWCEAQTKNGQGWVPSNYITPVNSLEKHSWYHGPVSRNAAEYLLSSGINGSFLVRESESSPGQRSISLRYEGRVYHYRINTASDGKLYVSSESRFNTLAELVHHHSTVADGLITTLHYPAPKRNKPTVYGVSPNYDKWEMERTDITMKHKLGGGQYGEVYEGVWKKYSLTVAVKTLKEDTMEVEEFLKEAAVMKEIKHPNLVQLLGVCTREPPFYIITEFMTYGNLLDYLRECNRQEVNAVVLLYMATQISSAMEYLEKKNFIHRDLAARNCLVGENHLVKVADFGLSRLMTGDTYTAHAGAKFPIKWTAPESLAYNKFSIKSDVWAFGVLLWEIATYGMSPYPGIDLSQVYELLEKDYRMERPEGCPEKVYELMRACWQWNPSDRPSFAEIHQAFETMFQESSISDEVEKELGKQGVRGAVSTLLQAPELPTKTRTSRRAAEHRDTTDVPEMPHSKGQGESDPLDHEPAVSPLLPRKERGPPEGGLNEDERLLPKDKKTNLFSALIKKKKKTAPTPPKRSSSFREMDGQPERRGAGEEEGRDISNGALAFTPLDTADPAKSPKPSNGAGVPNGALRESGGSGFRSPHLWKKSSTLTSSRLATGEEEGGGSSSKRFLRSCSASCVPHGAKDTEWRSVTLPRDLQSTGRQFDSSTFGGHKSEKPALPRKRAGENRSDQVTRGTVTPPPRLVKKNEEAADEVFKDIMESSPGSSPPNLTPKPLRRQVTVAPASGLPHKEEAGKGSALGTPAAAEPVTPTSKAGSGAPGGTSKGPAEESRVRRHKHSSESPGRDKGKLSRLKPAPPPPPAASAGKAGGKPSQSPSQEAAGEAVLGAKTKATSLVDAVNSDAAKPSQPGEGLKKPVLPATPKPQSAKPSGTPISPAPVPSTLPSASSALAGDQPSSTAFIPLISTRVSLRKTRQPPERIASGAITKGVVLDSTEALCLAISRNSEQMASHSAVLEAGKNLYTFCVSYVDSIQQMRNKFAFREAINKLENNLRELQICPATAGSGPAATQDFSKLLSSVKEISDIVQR
Chain of EGFR (P00533 25-1210, species assumed): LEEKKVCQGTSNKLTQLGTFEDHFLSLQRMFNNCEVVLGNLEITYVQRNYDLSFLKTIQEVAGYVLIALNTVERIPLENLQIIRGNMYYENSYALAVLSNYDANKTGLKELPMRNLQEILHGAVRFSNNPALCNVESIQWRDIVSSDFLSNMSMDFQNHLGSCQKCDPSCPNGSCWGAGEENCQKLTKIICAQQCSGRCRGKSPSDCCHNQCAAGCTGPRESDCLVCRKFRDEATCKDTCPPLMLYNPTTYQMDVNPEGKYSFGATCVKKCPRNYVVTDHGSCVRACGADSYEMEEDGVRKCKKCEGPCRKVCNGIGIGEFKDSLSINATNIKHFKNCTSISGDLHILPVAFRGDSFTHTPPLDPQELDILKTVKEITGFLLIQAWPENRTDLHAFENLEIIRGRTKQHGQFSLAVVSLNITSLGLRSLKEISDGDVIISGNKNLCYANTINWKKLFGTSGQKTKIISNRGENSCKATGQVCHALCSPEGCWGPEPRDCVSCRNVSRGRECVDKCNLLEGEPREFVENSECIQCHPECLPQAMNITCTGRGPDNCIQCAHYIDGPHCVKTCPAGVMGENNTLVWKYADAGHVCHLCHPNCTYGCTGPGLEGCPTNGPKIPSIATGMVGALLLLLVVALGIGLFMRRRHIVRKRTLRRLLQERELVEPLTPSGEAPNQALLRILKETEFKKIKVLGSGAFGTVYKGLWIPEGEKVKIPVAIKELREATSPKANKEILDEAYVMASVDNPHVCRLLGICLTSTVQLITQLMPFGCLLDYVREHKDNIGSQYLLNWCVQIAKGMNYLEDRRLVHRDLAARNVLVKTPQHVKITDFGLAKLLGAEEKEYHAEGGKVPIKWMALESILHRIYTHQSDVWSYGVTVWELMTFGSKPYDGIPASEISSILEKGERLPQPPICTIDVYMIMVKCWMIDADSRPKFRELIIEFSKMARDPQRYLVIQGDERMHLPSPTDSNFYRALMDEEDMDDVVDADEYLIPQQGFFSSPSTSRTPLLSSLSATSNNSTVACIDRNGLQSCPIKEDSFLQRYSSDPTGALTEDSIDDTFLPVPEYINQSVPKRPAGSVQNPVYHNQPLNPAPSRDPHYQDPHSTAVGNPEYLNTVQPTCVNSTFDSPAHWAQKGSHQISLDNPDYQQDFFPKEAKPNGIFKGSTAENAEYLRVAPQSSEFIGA

CNC(=O)c1cc(Oc2ccc(NC(=O)Nc3ccc(Cl)c(C(F)(F)F)c3)cc2)ccn1 [Sorafenib]
PDGFR Inhibitory profile (with IC50s when available) (PDGFR [1]; Table 6): potent

Cc1[nH]c(/C=C2\C(=O)Nc3ccccc32)c(C)c1CCC(=O)O [SU6668]
IC50 (PDGFR [1]; [15]): 10 nM

CC(C)c1c(C(=O)Nc2ccccc2)c(-c2ccccc2)c(-c2ccc(F)cc2)n1CC[C@@H](O)C[C@@H](O)CC(=O)O [Atorvastatin]
clinical scores of CIA ([2]; atorvastatin alone, 1.25 to 20 mg/kg, FIG. 16B): not effective at decreasing the clinical scores of CIA

Cn1c(=O)c(-c2c(Cl)cccc2Cl)cc2cnc(Nc3cccc(CO)c3)nc21 [PD166326]
trough plasma level ([3]; 25 mg/kg): approximately 0.005 μM
peak plasma level ([3]; 25 mg/kg): 0.026 µM
trough plasma level ([3]; 50 mg/kg): ~0.018 µM
peak plasma level ([3]; 50 mg/kg): 0.098 µM

Cc1cn(-c2cc(NC(=O)c3ccc(C)c(Nc4nccc(-c5cccnc5)n4)c3)cc(C(F)(F)F)c2)cn1 [Nilotinib]
IC50 (PDGFR [1]; [15]): 1 nM

Cc1ccc(NC(=O)c2ccc(CN3CCN(C)CC3)cc2)cc1Nc1nccc(-c2cccnc2)n1 [Imatinib]
IgM production by LPS-stimulated B cells ([4]; imatinib 1 μM): mildly reduced
IgM production by LPS-stimulated B cells ([4]; imatinib 10 μM): most significant reduction
production of IFN-γ and TNFα by CII-stimulated TCR transgenic T cells ([5]; CII 20 μg/mL, 3.3 μM imatinib): moderate reduction
production of IFN-gamma, IL-4, and TNFα by CII-stimulated TCR transgenic T cells ([5]; CII 20 μg/mL, 10 μM imatinib): further reduced production
anti-CII T cell production of IL-2 ([5]; any imatinib concentration tested): not significantly reduced
progression of established arthritis (visual score, mean paw thickness) ([6]; 33 and 100 mg/kg, p<0.05 after 10 days of treatment): inhibited the progression of established arthritis
histopathology: synovitis, pannus, and erosion scores ([6]; treatment of established CIA, 33 and 100 mg/kg, p<0.05): statistically significant reductions in synovitis, pannus, and erosion scores
differentiation of synovial fluid monocytes into macrophages (morphology) (synovial fluid monocytes): blocked the differentiation of synovial fluid monocytes from human RA patients into macrophages
mast cell production of TNFα, GM-CSF, and IL-6 (C1.MC/57.1 mast cells): dramatically reduced mast cell production of TNFα, GM-CSF, and IL-6
expansion (epitope spreading) of autoreactive B cell responses [7]: reduced expansion of autoreactive B cell responses
SCF-induced phosphorylation of c-Kit (c-Kit [8]; [16]): potently inhibited SCF-induced phosphorylation of c-Kit
phosphorylation of downstream Akt (Ser 473) (c-Kit [8]; [16]): corresponding reduction in phosphorylation of downstream Akt (Ser 473)
SCF-induced activation of kinases downstream of c-Kit (ERK, JNK, p38), RPP array (c-Kit [8]; 1 and 5 μM imatinib): inhibited SCF-induced activation of diverse protein tyrosine kinases downstream of c-Kit
CIA efficacy compared to PBS vehicle-control ([2]; 15 mg/kg imatinib, FIG. 16A): relatively little efficacy
severity of CIA (mean visual arthritis score, mean paw thickness) ([2]; 33 or 100 mg/kg orally twice-daily from 1 day prior to induction, p<0.01 after day 38): significant reductions in the severity of CIA
incidence of CIA ([2]; 33 or 100 mg/kg orally twice-daily, day 49): reduced the incidence of CIA
severity of CIA (scores, paw measurements), direct comparison study ([2]; FIG. 13C-13D): statistically significant reductions in the severity of CIA
histopathology: synovitis, pannus, and erosion scores ([2]; CIA prevention study, 33 and 100 mg/kg, p<0.01 synovitis and erosion, p<0.05 pannus): statistically significant reductions in synovitis, pannus, and erosion scores
onset and severity of EAE (EAE in C57B/6 mice): a delay in the onset and reduced severity of EAE
Early apoptosis (PI− AnnV+) (anti-CII T cells; [17]): 3.8%
Late apoptosis (PI+ AnnV+) (anti-CII T cells; [17]): 0.6%
Early apoptosis (PI− AnnV+) (anti-CII T cells; [18]): 5.2%
Late apoptosis (PI+ AnnV+) (anti-CII T cells; [18]): 1.2%
Early apoptosis (PI− AnnV+) (anti-CII T cells; [19]): 6.2%
Late apoptosis (PI+ AnnV+) (anti-CII T cells; [19]): 0.9%
Early apoptosis (PI− AnnV+) (anti-CII T cells; [20]): 4.6%
Late apoptosis (PI+ AnnV+) (anti-CII T cells; [20]): 1.1%
Live cells (PI− AnnV−) (anti-CII T cells; [20]): 95.5%
Early apoptosis (PI− AnnV+) (anti-CII T cells; [21]): 5.3%
Late apoptosis (PI+ AnnV+) (anti-CII T cells; [21]): 0.7%
Live cells (PI− AnnV−) (anti-CII T cells; [21]): 93.6%
Early apoptosis (PI− AnnV+) (anti-CII T cells; [22]): 6.6%
Late apoptosis (PI+ AnnV+) (anti-CII T cells; [22]): 0.9%
Live cells (PI− AnnV−) (anti-CII T cells; [22]): 93.7%
Early apoptosis (PI− AnnV+) (anti-CII T cells; anti-CII TCR transgenic, 1 μM): 3.4%
Late apoptosis (PI+ AnnV+) (anti-CII T cells; anti-CII TCR transgenic, 1 μM): 0.5%
Early apoptosis (PI− AnnV+) (anti-CII T cells; anti-CII TCR transgenic, 5 μM): 5.9%
Late apoptosis (PI+ AnnV+) (anti-CII T cells; anti-CII TCR transgenic, 5 μM): 0.8%
Early apoptosis (PI− AnnV+) (anti-CII T cells; anti-CII TCR transgenic, 10 μM): 6.1%
Late apoptosis (PI+ AnnV+) (anti-CII T cells; anti-CII TCR transgenic, 10 μM): 0.9%

COc1cc2c(Oc3ccc4[nH]c(C)cc4c3F)ncnc2cc1OCCCN1CCCC1 [Cediranib]
PDGFR Inhibitory profile (with IC50s when available) (PDGFR [1]; Table 7): potent?

C[C@@H](Nc1ncnc2[nH]c(-c3ccc(O)cc3)cc12)c1ccccc1 [PKI-166]
EGFR Inhibitory profile (with IC50s when available) (EGFR): potent

CC1(C)CNc2cc(NC(=O)c3cccnc3NCc3ccncc3)ccc21 [AMG 706]
PDGFR Inhibitory profile (with IC50s when available) (PDGFR [1]; Table 7): potent

Cc1ccc(NC(=O)c2ccccc2)cc1Nc1nccc(-c2cccnc2)n1 [CGP53716]
IC50 (c-Kit [9]): 2 nM
IC50 (c-Kit [10]): < 1000 nM
IC50 (FGFR): 1100 nM
plasma level ([11]; 8 hours after dosing): 1600 nM
plasma level ([11]; 24 hours after dosing): 1900 nM
IC50 (Abl): 600 nM
inhibition of other kinases including EGFR, FGFR, insulin receptors, Src, Lyn, PKA and PKC [13]: does not inhibit other kinases at clinically relevant concentrations
severity of CIA (scores, paw measurements), direct comparison study ([2]; FIG. 13C-13D): statistically significant reductions in the severity of CIA
efficacy at preventing and treating CIA relative to imatinib ([2]; FIG. 13C-13D): nearly as effective as imatinib

COc1ccc(COc2ccc(Cc3cnc(N)nc3N)cc2OC)cc1 [GW2580]
severity of established CIA (mean visual arthritis score, paw thickness) ([6]; 50 mg/kg for 5 days vs vehicle): highly effective at treating established collagen-induced arthritis; also recorded: reduced the severity of arthritis
IC50 (PDGFR [12]; [24]): 4300 nM and 4350 nM
IC50 (PDGFR [12]; read-out: PDGFR Inhibitory Profile (IC50), Table 5, value referenced to FIG. 11): 4300 nM

Cc1[nH]c(/C=C2\C(=O)Nc3ccc(Br)cc32)c(C)c1CCC(=O)O [SU9518]
IC50 (PDGFR [1]; [23]): 50 nM
IC50 (PDGFR [1]; literature, read-out: IC50 PDGFR (PDGFRα/β)): 53 nM
IC50 (FGFR; unit inferred): 4400 nM
peak plasma level [14]: 1.76 µM
plasma level 8 hours after dosing [14]: above 1 μM

— patent publication US20080032989A1, “Method of treating inflammatory diseases using tyroskine kinase inhibitors” (priority 2006, published 2008)
